Patent US7947827B2 (priority 2006, dated 2011)
Read-outs that look alike come from different tables or passages of the source.

Columns and labels:
[1] = test system: NQO activity in cultured murine hepatoma cells; conditions: cited from earlier work
[2] = test system: bone marrow cells of mice; conditions: mouse, in vivo; cited from earlier work
[3] = mouse, in vivo, po, 2500 mg/kg; cited from earlier work
[4] = mouse, in vivo, cited from earlier work
[5] = rat, in vivo, cited from earlier work
[6] = rabbit, in vivo, cited from earlier work
[7] = in vivo, ip; cited from earlier work
[8] = dog, in vivo, cited from earlier work
[9] = pig, in vivo, cited from earlier work
[10] = rhesus monkey, in vivo, iv
[11] = set-up: species or system sheep; conditions: in vivo
[12] = set-up: species or system humans; conditions: in vivo
[13] = rat, in vivo; cited from earlier work
[14] = rhesus monkey, in vivo, iv; cited from earlier work
[15] = in vivo, po; cited from earlier work
[16] = rat, in vivo; cited from earlier work; remark: listed apart in the source
[17] = rat, in vivo; cited from earlier work; remark: listed apart in the source
[18] = guinea pig, in vivo; cited from earlier work
[19] = rat, in vivo; cited from earlier work; remark: listed apart in the source
[20] = rat, in vivo; cited from earlier work; remark: listed apart in the source
[21] = in vivo; cited from earlier work
[22] = test system: azoxymethane- and IQ-induced aberrant crypt foci; conditions: in vivo; cited from earlier work

sodium copper chlorophyllin
concentration required to double NQO activity (CD) [1]: 30 µM
potency as NQO inducer relative to Chl [1]: ~10 times
reducing clastogenicity from cesium chloride, mercuric chloride and cobalt chloride [2]: demonstrated efficacy
ill effects [3]: without any ill effects

Sodium chlorophyllin copper complex
LD50 ([4]; im): > 500 mg/kg
LD50 ([4]; ip): > 1000 mg/kg
LD50 ([4]; iv): > 400 mg/kg
LD50 ([5]; im): > 250 mg/kg
LD50 ([5]; ip): > 1000 mg/kg
LD50 ([5]; iv): > 250 mg/kg
LD50 ([6]; im): > 60 mg/kg
LD50 ([6]; ip): > 500 mg/kg
LD50 ([6]; iv): > 200 mg/kg
LD50 [7]: > 60 mg/kg
LD50 ([8]; im): > 50 mg/kg
LD50 ([8]; ip): > 200 mg/kg
LD50 ([8]; iv): > 200 mg/kg
LD50 ([9]; im): > 20 mg/kg
LD50 ([9]; iv): > 10 mg/kg

COc1cc2c(c3oc(=O)c4c(c13)CCC4=O)[C@@H]1C=CO[C@@H]1O2 [AFB1, aflatoxin B1]
terminal half-life (t1/2β) from all routes of excretion [10]: approximately 24 hours
t1/2 [11]: approximately 24 hours
terminal half-life, conservative estimate [12]: less than 24 hours
time to complete absorption [12]: 0.5 to 1.0 h
absorption rate constant (ka) [13]: 5.84 ± 0.05 h⁻¹
dose eliminated in urine as chloroform extractable, first 24 hours [14]: ~10%
dose eliminated in urine as unbound, first 24 hours [14]: ~30%
dose eliminated in urine within first 24 hours [14]: 40%
dose remaining in the liver at 100 hours [14]: 13.6%
dose remaining in the plasma at 100 hours [14]: 5.8%
fecal excretion of dose, 24 to 48 hours [14]: 20%
fecal excretion of dose, 48 to 72 hours [14]: ~6%
fecal excretion of dose, 72 to 100 hours [14]: ~3%
fecal excretion of dose, first 24 hours [14]: ~4%
total excreta after 100 hours, of administered dose [14]: 73.1%
total dose excreted in first 48 hours [15]: approximately 90%

potassium sodium chlorophyllin copper complex [sodium potassium chlorophyllin]
LD50 ([4]; po): 7000 mg/kg
adverse effects [16]: without any adverse effects except weight loss related to food refusal
effects in offspring [17]: locomotory difficulties and skeletal muscle defects
ill effects or pathological change [18]: without ill effects or pathological change
Cu toxicity or deposition in liver, kidney or spleen [19]: no evidence of Cu toxicity or deposition
gross or histopathological changes [19]: No gross or histopathological changes
copper storage in liver, kidney or spleen [20]: No copper storage occurred
scurvy [21]: no evidence of scurvy

chlorin e4 ethyl ester
concentration required to double NQO activity (CD) [1]: 20 µM
potency as NQO inducer relative to Chl [1]: 50 times

chlorophyll
azoxymethane- and IQ-induced aberrant crypt foci [22]: inhibited
